{"source": "PubChem BioAssay (NCI)", "assay_in_all_cases": "growth of human tumour cells (NCI), 48 h", "key": {"CAKI-1 renal": {"test_system": "CAKI-1 renal"}, "NCI-H226 lung": {"test_system": "NCI-H226 lung"}, "HCT-15 colon": {"test_system": "HCT-15 colon"}, "ACHN renal": {"test_system": "ACHN renal"}, "SR leukemia": {"test_system": "SR leukemia"}, "MALME-3M melanoma": {"test_system": "MALME-3M melanoma"}, "NCI/ADR-RES ovarian": {"test_system": "NCI/ADR-RES ovarian"}, "SN12C renal": {"test_system": "SN12C renal"}, "EKVX NSCLC": {"test_system": "EKVX NSCLC"}, "SK-MEL-2 melanoma": {"test_system": "SK-MEL-2 melanoma"}, "NCI-H23 lung": {"test_system": "NCI-H23 lung"}, "TK-10 renal": {"test_system": "TK-10 renal"}, "OVCAR-4 ovarian": {"test_system": "OVCAR-4 ovarian"}, "NCI-H460 lung": {"test_system": "NCI-H460 lung"}, "HS 578T breast": {"test_system": "HS 578T breast"}, "SK-MEL-28 melanoma": {"test_system": "SK-MEL-28 melanoma"}, "NCI-H522 lung": {"test_system": "NCI-H522 lung"}, "LOX IMVI melanoma": {"test_system": "LOX IMVI melanoma"}, "HOP-92 NSCLC": {"test_system": "HOP-92 NSCLC"}, "UACC-62 melanoma": {"test_system": "UACC-62 melanoma"}, "OVCAR-5 ovarian": {"test_system": "OVCAR-5 ovarian"}, "COLO 205 colon": {"test_system": "COLO 205 colon"}, "T-47D breast": {"test_system": "T-47D breast"}, "DU-145 prostate": {"test_system": "DU-145 prostate"}, "SF-539 CNS": {"test_system": "SF-539 CNS"}, "U251 CNS": {"test_system": "U251 CNS"}, "SK-MEL-5 melanoma": {"test_system": "SK-MEL-5 melanoma"}, "SNB-75 CNS": {"test_system": "SNB-75 CNS"}}, "note": "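Compound exposure: 48 hours, 5 concentrations, 96-well plates. Abbreviation: GI50, concentration required for 50% inhibition of growth. Definition used: TGI = concentration required for complete inhibition of growth.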"}
{"smiles": "Oc1c(Cl)cc(Cl)cc1/C=N/Nc1nnc(N/N=C/c2cc(Cl)cc(Cl)c2O)c2ccccc12", "values": [{"measurement": "GI50", "setting": "CAKI-1 renal", "value": 643, "unit": "nM"}, {"measurement": "GI50", "setting": "NCI-H226 lung", "value": 402, "unit": "nM"}, {"measurement": "TGI", "setting": "NCI-H226 lung", "value": 3040, "unit": "nM"}, {"measurement": "GI50", "setting": "HCT-15 colon", "value": 334, "unit": "nM"}, {"measurement": "TGI", "setting": "HCT-15 colon", "value": "> 100000", "unit": "nM"}, {"measurement": "GI50", "setting": "ACHN renal", "value": 394, "unit": "nM"}, {"measurement": "TGI", "setting": "ACHN renal", "value": "> 100000", "unit": "nM"}, {"measurement": "GI50", "setting": "SR leukemia", "value": 434, "unit": "nM"}, {"measurement": "TGI", "setting": "SR leukemia", "value": "> 100000", "unit": "nM"}, {"measurement": "GI50", "setting": "MALME-3M melanoma", "value": 680, "unit": "nM"}, {"measurement": "TGI", "setting": "MALME-3M melanoma", "value": "> 100000", "unit": "nM"}, {"measurement": "GI50", "setting": "NCI/ADR-RES ovarian", "value": 363, "unit": "nM"}, {"measurement": "TGI", "setting": "NCI/ADR-RES ovarian", "value": "> 100000", "unit": "nM"}, {"measurement": "GI50", "setting": "SN12C renal", "value": 543, "unit": "nM"}, {"measurement": "TGI", "setting": "SN12C renal", "value": "> 100000", "unit": "nM"}, {"measurement": "GI50", "setting": "EKVX NSCLC", "value": 429, "unit": "nM"}, {"measurement": "TGI", "setting": "EKVX NSCLC", "value": "> 100000", "unit": "nM"}, {"measurement": "GI50", "setting": "SK-MEL-2 melanoma", "value": 770, "unit": "nM"}, {"measurement": "TGI", "setting": "SK-MEL-2 melanoma", "value": "> 100000", "unit": "nM"}, {"measurement": "GI50", "setting": "NCI-H23 lung", "value": 406, "unit": "nM"}, {"measurement": "TGI", "setting": "NCI-H23 lung", "value": "> 100000", "unit": "nM"}, {"measurement": "GI50", "setting": "TK-10 renal", "value": 704, "unit": "nM"}, {"measurement": "TGI", "setting": "TK-10 renal", "value": "> 100000", "unit": "nM"}, {"measurement": "GI50", "setting": "OVCAR-4 ovarian", "value": 388, "unit": "nM"}, {"measurement": "TGI", "setting": "OVCAR-4 ovarian", "value": "> 100000", "unit": "nM"}, {"measurement": "GI50", "setting": "NCI-H460 lung", "value": 340, "unit": "nM"}, {"measurement": "TGI", "setting": "NCI-H460 lung", "value": 2260, "unit": "nM"}, {"measurement": "GI50", "setting": "HS 578T breast", "value": 1030, "unit": "nM"}, {"measurement": "TGI", "setting": "HS 578T breast", "value": "> 100000", "unit": "nM"}, {"measurement": "GI50", "setting": "SK-MEL-28 melanoma", "value": 622, "unit": "nM"}, {"measurement": "TGI", "setting": "SK-MEL-28 melanoma", "value": "> 100000", "unit": "nM"}, {"measurement": "GI50", "setting": "NCI-H522 lung", "value": 366, "unit": "nM"}, {"measurement": "TGI", "setting": "NCI-H522 lung", "value": 6700, "unit": "nM"}, {"measurement": "GI50", "setting": "LOX IMVI melanoma", "value": 225, "unit": "nM"}, {"measurement": "TGI", "setting": "LOX IMVI melanoma", "value": 586, "unit": "nM"}, {"measurement": "GI50", "setting": "HOP-92 NSCLC", "value": 284, "unit": "nM"}, {"measurement": "GI50", "setting": "UACC-62 melanoma", "value": 318, "unit": "nM"}, {"measurement": "TGI", "setting": "UACC-62 melanoma", "value": 1710, "unit": "nM"}, {"measurement": "GI50", "setting": "OVCAR-5 ovarian", "value": 957, "unit": "nM"}, {"measurement": "TGI", "setting": "OVCAR-5 ovarian", "value": "> 100000", "unit": "nM"}, {"measurement": "GI50", "setting": "COLO 205 colon", "value": 433, "unit": "nM"}, {"measurement": "TGI", "setting": "COLO 205 colon", "value": "> 100000", "unit": "nM"}, {"measurement": "GI50", "setting": "T-47D breast", "value": 506, "unit": "nM"}, {"measurement": "TGI", "setting": "T-47D breast", "value": "> 100000", "unit": "nM"}, {"measurement": "GI50", "setting": "DU-145 prostate", "value": 715, "unit": "nM"}, {"measurement": "TGI", "setting": "DU-145 prostate", "value": "> 100000", "unit": "nM"}, {"measurement": "GI50", "setting": "SF-539 CNS", "value": 258, "unit": "nM"}, {"measurement": "TGI", "setting": "SF-539 CNS", "value": 640, "unit": "nM"}, {"measurement": "GI50", "setting": "U251 CNS", "value": 345, "unit": "nM"}, {"measurement": "TGI", "setting": "U251 CNS", "value": "> 52600", "unit": "nM"}, {"measurement": "GI50", "setting": "SK-MEL-5 melanoma", "value": 505, "unit": "nM"}, {"measurement": "TGI", "setting": "SK-MEL-5 melanoma", "value": 2200, "unit": "nM"}, {"measurement": "GI50", "setting": "SNB-75 CNS", "value": 867, "unit": "nM"}]}
